Assay type in all cases: in vivo, rat
In assay [1] the test system is conscious rats. In words: ICV glucose or lactate infusion with pancreatic basal insulin clamp: plasma glucose and liver glucose production. The text has this:
We hypothesize that the hypothalamic sensing of glucose-derived pyruvate is a novel regulator of endogenous glucose production (GP). […] We propose that an increase in neuronal pyruvate levels is a hypothalamic signal of nutrient availability.
Long chain fatty acids in the brain decrease glucose production (GP) by the liver via activation of hypothalamus ATP-sensitive (KATP) channels. Here we tested whether (A) direct administration of glucose in the third cerebral ventricle can alter glucose production by the liver, and (B) whether this effect requires its metabolism in the TCA cycle.

Assay [2] concerns mediobasal hypothalamus. In words: Intrahypothalamic (IH) infusion of glucose or DCA with pancreatic basal insulin clamp. The conditions noted are these: IH administration. An excerpt:
FIG. 3 is a diagram of experimental protocols (Panel (a)) and graphs of results of those experiments utilizing intrahypothalamic (IH) infusions of glucose.
FIG. 4 is a schematic and graphs of experimental results showing the effect of dichloroacetate (DCA), an inhibitor of pyruvate dehydrogenase kinase, having the effect of activating pyruvate dehydrogenase (PDH). The schematic of Panel (a) illustrates the PDH activation effect of DCA in the context of glucose metabolism, the TCA cycle, and nervous system cells.
We have localized the effect of glucose on liver glucose production to the mediobasal hypothalamus. This was accomplished using bilateral intraparenchymal (rather than ICY) delivery of both glucose and the KATP blocker GLI.

The subject of assay [3] is high fat-fed rats. The experiment in a line: Central glucose or lactate in regular chow vs 3-day high fat diet-fed animals: glucose production. The conditions noted are these: central administration. The text has this:
The latter is an excellent model for diet-induced insulin resistance.

Assay [4] relates to hepatic VLDL secretion. The experiment in a line: Lipoprotein (VLDL) secretion studies with tyloxapol; NMR particle size. Particulars: ICV glucose. On the procedure: Lipoproteins secretion and particles concentration and size measurements. Tyloxapol (600 mg/kg; ˜1 min) was intravenously injected to inhibit endogenous lipoprotein lipase. This high dose of tyloxapol ensured complete inhibition of triglyceride clearance during VLDL secretion studies. Plasma samples were taken every 30 min for triglycerides analysis and for lipoprotein profiling. Plasma VLDL particles concentration and size were determined by nuclear magnetic resonance spectroscopy (lipoprofile-II test) at Liposcience as previously described (Otvos et al., 1991; 1992). This NMR lipoprofile-II test is based on the assumption that each plasma lipoprotein particle of a particular size gives its own characteristic lipid NMR signal. The intensity of the signal is also in proportion to the concentration of the particle. The diameter range for large, medium and small VLDL is >60 nm, 35-60 nm, and 27-35 nm, respectively.
Selective hepatic branch vagotomy. The surgeries were performed as described (Lam et al., 2005c).
Treatment with SCD1 ASO. Five and two days before the lipoprotein secretion studies, rats received a single intra-peritoneal injection of either SCD1 or scrambled (SCR) ASO (100 mg/kg of body weight). […] In a separate set of studies, rats received intra-portal injection of either SCD1 or SCR ASO (40 mg/kg of body weight) (Gutierrez-Juarez et al., 2006) three days before the lipoprotein secretion studies.
Portal oleate infusion. Chronic portal catheter was implanted and 7 days were allowed for rat recovery. Oleic acid (45 mM; dissolved in 45% HBP) was infused at a rate of 40 μl/h for 2.5 h (1 h before the 90 min lipoprotein secretion studies). This dose enabled the reconstitution of hepatic oleyl-CoA levels back to normal during portal SCD1 ASO (FIG. 11c) or ICV glucose studies (FIG. 11d).

In assay [5] the test system is phospho-ACC, ACC, FAS, MTP and ApoB. The experiment in a line: Western blot of liver proteins after ICV glucose. Here is the method: Western blot analyses. Liver tissue (50-100 mg) was homogenized in a detergent-based lysis buffer (M-PER, Pierce) supplemented with protease and phosphatase inhibitors. The extracts were incubated on ice for 20 min and then centrifuged at 15,000×g to remove tissue debris; the supernatants were saved and frozen at −80 C until analysis. Fifty μg of protein were heat-denatured in SDS-PAGE sample buffer and resolved on denaturing (SDS) 10% polyacrylamide gels (SDS-PAGE). Fractionated proteins were electrophoretically transferred to nitrocellulose membranes by standard procedures. Membranes were immunoblotted with the appropriate primary antibodies and immune complexes were detected by enhanced chemiluminescence (ECL) (Western Lightning, Perkin Elmer Life Sciences) using horseradish peroxidase conjugated secondary antibodies. Bands were imaged on X-ray film and digitized for quantification using ImageQuant software (Molecular Dynamics). β-tubulin was used for loading normalization. Antibodies. Rabbit antibodies to acetyl Co-A carboxylase and phospho-acetyl Co-A carboxylase (Ser79) were from Cell Signaling Technology (Beverly, Mass.); fatty acid synthetase (FAS) and microsomal triglyceride transfer protein (MTP) antibodies were from BD Biosciences Pharmingen (San Jose, Calif.); cholesterol hydroxylase 7α (CYP7A1) and ApoB-100 antibodies were from Santa Cruz Biotechnology (Santa Cruz, Calif.); mouse monoclonal β-tubulin antibodies were obtained from Covance Research Products (Berkeley, Calif.).

The mark [6] stands for this setting: central administration of glucose.

Structures are written as SMILES.

Results on 1 molecule are retold here after patent publication US20110207694A1, “MAMMALIAN HYPOTHALAMIC NUTRIENT MODULATION OF GLUCOSE METABOLISM” (priority 2005, published 2011).

For `O=C[C@H](O)[C@@H](O)[C@H](O)[C@H](O)CO` [glucose, D-glucose], the circulating glucose levels entry in assay [1] (central (ICV) administration) is “lowered circulating glucose levels”. For the same molecule, in assay [1] (central administration), the gluconeogenesis and glycogenolysis entry was “inhibited gluconeogenesis and glycogenolysis”; the “liver glucose production, G6Pase flux and mRNA” value was “reduced liver glucose production, G6Pase flux and mRNA”. In assay [1] (four hour ICV infusion 5 μl/h (glucose 2 mM, lactate 5 mM), control 150±4), this molecule returned a plasma glucose concentrations of 133 ± 5 mg/dL. For the same molecule, the “exogenous glucose infusion rate required to maintain euglycemia” value in assay [1] (pancreatic basal insulin clamps, central administration) was “increased exogenous glucose infusion rate”. For the same molecule, the “GP (glucose production)” value in assay [1] (pancreatic clamps, plasma glucose and insulin at basal, ICV infusion, control 10.4±0.1 (glucose), 11.7±0.6 (lactate)) amounted to 7.4 ± 0.3 mg/kg/min. For the same molecule, the circulating glucose levels entry in assay [2] was “lowered circulating glucose levels”. In assay [2] (clamp), the glucose production result was “suppressed liver glucose production” and the glucose utilization result was “unchanged”. In addition, the “exogenous glucose infusion rate to maintain euglycemia” value in assay [2] (pancreatic basal insulin clamps) is “increased exogenous glucose infusion rate”. In addition, in assay [3] (3-day high fat diet-fed animals), the glucose production entry is reported as “severely impaired”. Moreover, in assay [3] (regular chow animals), the glucose production entry is listed as “lowered glucose production”. In assay [4], the “hepatic content of triglycerides” value is reported as “increased”; the “rate of secretion of small (27-35 nm) and medium (35-60 nm) VLDL particles” value was “tended to be higher”; the “secretion of large triglyceride-rich VLDL particles (diameter >60 nm)” value is “dramatically and selectively blunted the secretion of large triglyceride-rich VLDL particles”. For the same molecule, the “average size of the secreted VLDL particles” value in assay [4] (NMR spectroscopy) is on record as “significant decrease in the average size of the secreted VLDL particles”. For the same molecule, the “rate of secretion of VLDL-triglycerides” value in assay [4] (tyloxapol 600 mg/kg) is reported as “suppressed the rate of secretion of VLDL-triglycerides within 90 minutes”. The “inhibitory effect on VLDL secretion in rats with resection of the hepatic branch of the vagus” value in assay [4] (preserved in sham-operated rats) was “abolished”. In addition, the “hepatic content of lipogenic enzymes acetyl-CoA carboxylase and fatty acid synthase” value in assay [5] (ICV glucose) was “failed to alter the hepatic content of these lipogenic enzymes”. Further, in assay [5] (setting [6]), the “expression of MTP in the liver” value is given as “not affected” and the “hepatic ApoB48 levels” value is on record as “not decreased”.
